{"source": "patent US5929079A", "about": "“Trans cyclopentanyl azaadenyl analogs useful as immunosuppressants” (Hoechst Marion Roussel, Inc., priority 1997, dated 1999)", "key": {"[1]": {"test_system": "endotoxin lethality in CF1 mice", "assay": "Mouse endotoxin lethality model (D-galactosamine/LPS septic shock)", "type": "in vivo", "details": "100 mg/kg i.p., pretreated at t=-1 hr; death observed over 8-72 hours", "experimental": "Using the method of Silverstein, (J. Exp. Med. 173, 357 (1991)) a mouse endotoxin lethality model may be used to determine if a compound of formula (1) has the ability to inhibit endotoxin-induced septic shock which is dependent on the production of Tumor Necrosis Factor-a (TNF-α). CF1 mice pretreated at time (t)=-1 hr with drug are challenged with 18 mg of D-glactoseamine and 50 ng of LPS, then observed for death over an 8-72 hour period."}, "[2]": {"test_system": "macrophage antigen presentation to Lewis (LEW/N) rat T-cell hybridoma (Interleukin-2 production)", "assay": "Regulation of antigen presentation to rat T-cell hybridoma (Interleukin-2 production)", "type": "cell-based", "experimental": "Using the method of Ku (Cellular Immunology 130,(1990)), and a Lewis (LEW/N) rat T-cell hybridoma reactive with the protein methylated bovine serum albumin (mBSA), the ability of a compound of formula (1) to regulate M.phi. antigen presentation in vitro may be measured. Peritoneal macrophages obtained from LEW/N rats are plated into tissue culture and treated with 100 ug of mBSA and drug. A control is prepared similarly. After a period of 18 hours the cells are washed and incubated with the T-cell hybridoma for an additional 12 hours. Supernatants from these cultures are obtained and measured for content of Interleukin-2, a T-cell derived lymphokine which is roduced by activated T-cells. […] Rat macrophage antigen presentation and the subsequent production of Interleukin-2 are inhibited when rug is administered over a concentration range from 0.1 to 100 uM as illustrated in the following table."}}, "note": "Structures can show the parent of a compound that is named as a salt.", "data": [{"smiles": "Nc1ncnc2c1ncn2[C@@H]1CC[C@@H](O)C1", "note": "[(1R,3R)-TRANS-1(9-ADENYL)CYCLOPENTAN-3-OL HYDROCHLORIDE]", "values": [{"measurement": "protection against endotoxin lethality", "setting": "[1]", "value": "protects against endotoxin lethality"}, {"measurement": "Rat macrophage antigen presentation and subsequent production of Interleukin-2", "setting": "[2]; 0.1 to 100 uM", "value": "inhibited"}, {"measurement": "T-cell activation", "setting": "[2]; in vitro", "value": "inhibits T-cell ctivation"}]}]}
